Results on 14 molecules are retold here after ChEMBL document CHEMBL5390223, “Strategies for the Discovery of Oxazolidinone Antibacterial Agents: Development and Future Perspectives” (J Med Chem, 2023).

By ED50 is commonly meant the dose that gives a 50% effect, or the effect in half of the subjects. As usually defined, the IC50 is the midpoint of a concentration-inhibition curve. Read a high IC50 as weaker potency. One may read the bioavailability as the share of a dose that reaches the circulation, judged against a reference dose that is usually intravenous. The low end stands for poor availability, the high end for good availability.

Converted amounts (≈) assume the structure as drawn.

Data set [1] has as its system Staphylococcus aureus. The experiment in a line: Antibacterial activity against methicillin-resistant Staphylococcus aureus ATCC 33592 assessed as reduction in bacterial cell growth incubated for 18 hrs by microplate reader assay. In kind it is functional.
In data set [2] the test system is Staphylococcus aureus. In words: Antibacterial activity against methicillin-susceptible Staphylococcus aureus […] assessed as reduction in bacterial cell growth incubated for 18 hrs by microplate reader assay. In kind it is functional.
Data set [3] deals with Enterococcus faecium. The experiment in a line: Antimicrobial activity against Vancomycin-resistant Enterococcus faecium ATCC 700221 assessed as growth inhibition after 14 to 16 hrs by CLSI based broth dilution method. In kind it is functional. The settings on record: time 14-16 hrs. On the technique in general: In broth dilution the organism is exposed to a series of concentrations in liquid medium.

In data set [4] the test system is Enterococcus. The experiment in a line: Antibacterial activity against vancomycin-resistant Enterococci assessed as reduction in bacterial cell growth incubated for 24 hrs by CLSI-microbroth dilution method. In kind it is functional.
For data set [5], the system named is Moraxella catarrhalis. In words: Antibacterial activity against Moraxella catarrhalis ATCC 8176 assessed as inhibition in bacterial growth measured after 24 hrs by broth microdilution method. In kind it is functional.
For data set [6], the system named is Moraxella catarrhalis. In words: Antibacterial activity against Moraxella catarrhalis assessed as inhibition of bacterial growth measured after 24 hrs by broth microdilution method. The data set is classed as functional.
Data set [7] has as its system Escherichia coli. The experiment in a line: Antibacterial activity against Escherichia coli assessed as inhibition of bacterial cell growth measured after 24 hrs by broth microdilution method. In kind it is functional.
Data set [8] has as its system Haemophilus influenzae. The experiment in a line: Antibacterial activity against Haemophilus influenzae assessed as reduction in bacterial cell growth measured after 24 hrs by broth microdilution method. The data set is classed as functional.
Data set [9] relates to Streptococcus pneumoniae. In words: Antibacterial activity against Streptococcus pneumoniae assessed as reduction in bacterial cell growth measured after 24 hrs by broth microdilution method. The data set is classed as functional.
Data set [10] has as its system Staphylococcus aureus. In words: Antibacterial activity against methicillin-susceptible Staphylococcus aureus infected in Swiss albino mouse assessed as reduction in bacterial growth by measuring effective dose administered orally 2 to 4 times a day for 2 consecutive days. Conditions: route po. In kind it is functional.
Data set [11] has as its system Enterococcus faecalis. The experiment in a line: Antibacterial activity against vancomycin-resistant Enterococcus faecalis […] infected in Swiss albino mouse assessed as reduction in bacterial growth by measuring effective dose administered orally 2 to 4 times a day for 2 consecutive days. The data set is classed as functional. The settings on record: route po.

Data set [12] concerns Staphylococcus aureus. In words: Antibacterial activity against Staphylococcus aureus ATCC 25923 assessed as reduction in microbial growth incubated for 24 hrs by micro-plate reader assay. In kind it is functional.
Data set [13] concerns Staphylococcus aureus. The experiment in a line: Antibacterial activity against Staphylococcus aureus HG001 assessed as reduction in bacterial cell growth incubated for 18 hrs by two-fold serial dilution method. The data set is classed as functional.
The test system of data set [14] is Pseudomonas aeruginosa. The experiment in a line: Antibacterial activity against Pseudomonas aeruginosa PAO1 assessed as bacterial growth inhibition incubated for 18 hrs by two-fold serial dilution method. In kind it is functional.
For data set [15], the system named is Mycobacterium tuberculosis. In words: Antimycobacterial activity against Mycobacterium tuberculosis H37Rv assessed as reduction in bacterial cell growth incubated for 6 days by Alamar blue staining based assay. Conditions: 144 h, time 6 day. The data set is classed as functional. Background: The colour change of resazurin is a common sign of viable cells or microbes.

In data set [16] the test system is Escherichia coli. The experiment in a line: Antibacterial activity against Escherichia coli Delta tolC mutant assessed as bacterial growth inhibition incubated for 24 hrs by broth microdilution method. The data set is classed as functional.
Data set [17] has as its system Staphylococcus aureus. In words: Antibacterial activity against Staphylococcus aureus ATCC 25923 assessed as reduction in bacterial growth incubated for 18 to 24 hrs by microbroth dilution method. The data set is classed as functional. Conditions: time 18-24 hrs.
The subject of data set [18] is Enterococcus faecium. The experiment in a line: Antibacterial activity against Enterococcus faecium ATCC 19434 assessed as reduction in microbial growth after 24 hrs by two-fold serial dilution method. The data set is classed as functional.
The test system of data set [19] is Streptococcus pneumoniae. In words: Antibacterial activity against Streptococcus pneumoniae assessed as reduction in bacterial cell growth inhibition by broth microdilution method. In kind it is functional.
Data set [20] addresses T1, Amine oxidase [flavin-containing] B (Homo sapiens, UniProt P27338).
T1 sequence (P27338 whole entry): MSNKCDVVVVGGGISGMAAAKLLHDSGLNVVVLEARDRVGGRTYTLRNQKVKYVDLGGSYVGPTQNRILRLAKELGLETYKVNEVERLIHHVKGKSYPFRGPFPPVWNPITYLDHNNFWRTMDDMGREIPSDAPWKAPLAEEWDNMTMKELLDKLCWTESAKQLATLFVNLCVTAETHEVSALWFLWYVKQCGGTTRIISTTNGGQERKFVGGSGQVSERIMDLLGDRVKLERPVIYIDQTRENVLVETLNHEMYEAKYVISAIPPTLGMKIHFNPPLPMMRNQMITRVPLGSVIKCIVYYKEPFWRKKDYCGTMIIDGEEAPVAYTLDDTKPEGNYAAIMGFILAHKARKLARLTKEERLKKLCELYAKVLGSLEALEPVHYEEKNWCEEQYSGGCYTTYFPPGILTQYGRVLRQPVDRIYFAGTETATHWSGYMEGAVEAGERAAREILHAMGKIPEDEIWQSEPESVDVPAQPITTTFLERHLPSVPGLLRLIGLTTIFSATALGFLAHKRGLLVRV
In words: Inhibition of MAO-B (unknown origin).

Data set [21] concerns Staphylococcus aureus. The experiment in a line: Antimicrobial activity against methicillin-resistant Staphylococcus aureus assessed as microbial growth inhibition. The data set is classed as functional.
Data set [22] concerns Staphylococcus aureus. In words: Antibacterial activity against methicillin-susceptible Staphylococcus aureus assessed as reduction in bacterial cell growth. In kind it is functional.
The test system of data set [23] is Enterococcus faecium. In words: Antimicrobial activity against Vancomycin-resistant Enterococcus faecium ATCC 51559 assessed as growth inhibition after 14 to 16 hrs by CLSI based broth dilution method. In kind it is functional. The settings on record: time 14-16 hrs.
Data set [24] concerns Staphylococcus aureus. The experiment in a line: Antibacterial activity against methicillin-resistant Staphylococcus aureus […] assessed as inhibition of bacterial growth incubated for 24 hrs by microplate reader assay. In kind it is functional.
The subject of data set [25] is Enterococcus faecalis. In words: Antibacterial activity against vancomycin-resistant Enterococcus faecalis ATCC 51299 assessed as reduction in bacterial cell growth incubated for 24 hrs by broth microdilution method. The data set is classed as functional.
In data set [26] the test system is Enterococcus faecium. In words: Antibacterial activity against vancomycin-resistant Enterococcus faecium infected in mouse assessed as reduction in bacterial growth by measuring effective dose administered orally. The data set is classed as functional. Conditions: route po.
The subject of data set [27] is Staphylococcus aureus. The experiment in a line: Antibacterial activity against methicillin-resistant Staphylococcus aureus infected in mouse assessed as reduction in bacterial growth by measuring effective dose administered orally. The data set is classed as functional. The settings on record: route po.
Data set [28] concerns Staphylococcus aureus. In words: Antibacterial activity against methicillin-susceptible Staphylococcus aureus infected in mouse assessed as reduction in bacterial growth by measuring effective dose administered orally. The data set is classed as functional. Conditions: route po.
A short description of data set [29]: Oral bioavailability in rat at 2 mg/kg. In kind it is ADME, organism-based. Conditions: in vivo.
Data set [30] can be described thus: Plasma protein binding in rat plasma at 10 mg/kg by LC-MS/MS analysis. In kind it is ADME, organism-based. The settings on record: read-out: PPB (converted).

For `O=C1O[C@@H](Cn2ccnn2)CN1c1ccc(N2CCOCC2)c(F)c1`, the MIC in data set [1], in data set [2] and in data set [3] was 0.5 mg/L (≈ 1.44 µM) each time.

As to `O=C(NCC(=O)N1CCN(c2ccc(N3C[C@H](Cn4ccnn4)OC3=O)cc2F)CC1)c1ccc([N+](=O)[O-])o1`, the MIC in data set [4] is 0.06 mg/L (≈ 0.111 µM); in data set [5] it was 0.25 mg/L (≈ 0.461 µM); in data set [6], 0.06 mg/L (≈ 0.111 µM); in data set [7], 0.06 mg/L (≈ 0.111 µM); in [8], 0.06 mg/L (≈ 0.111 µM); in data set [9] it was 0.06 mg/L (≈ 0.111 µM).

For the molecule `CC(=O)NC[C@H]1CN(c2ccc(-c3cnc(-n4cncn4)nc3)c(F)c2)C(=O)O1`, the ED50 in data set [10] is 4.2 mg/kg; in data set [11], 8.6 mg/kg. Also, the MIC in [12] turned out to be 0.125 mg/L.

On to `CC(=O)NC[C@H]1CN(c2ccc(N3CCN(C(=O)OCn4cc(CNC(=O)C(CNC(=O)C(CNC(=O)CNC(=O)c5cccc(O)c5O)NC(=O)c5cccc(O)c5O)NC(=O)c5cccc(O)c5O)nn4)CC3)c(F)c2)C(=O)O1` (stereo partly drawn), for which the values for the MIC in data set [13] and in data set [14] were 16 µM (≈ 18 µg/mL) and more than 64 µM, respectively.

Turning to `CC(=O)NC[C@H]1CN(c2ccc(N3CCN(C(=O)CN(CCCNC(=O)c4cccc(O)c4O)C(=O)c4cccc(O)c4O)CC3)c(F)c2)C(=O)O1`, the values for the MIC in [13] and in data set [14] were 64 µM (≈ 46.3 µg/mL) and more than 64 µM, respectively.

In the case of `CC(=O)NC[C@H]1CN(c2ccc(-c3ccc(CO[C@@H]4COc5nc([N+](=O)[O-])cn5C4)nc3)c(F)c2)C(=O)O1`, the MIC in data set [15] worked out at 0.15 mg/L (≈ 0.285 µM).

Regarding `CC(=O)NC[C@H]1CN(c2ccc(N3CCN(C(=O)COCCOCCn4cc(CNC(=O)C(CCCCNC(=O)c5cccc(O)c5O)NC(=O)c5cccc(O)c5O)nn4)CC3)c(F)c2)C(=O)O1` (stereo partly drawn), the MIC in data set [13] is 64 µM (≈ 61.6 µg/mL); in data set [14], more than 64 µM.

Regarding `CSCC[C@H](NC(=O)[C@H](Cc1ccc(O)cc1)NC(=O)[C@H](CCCCN)NC(=O)[C@@H]1CCCN1C(=O)[C@H](CO)NC(=O)[C@H](Cc1c[nH]c2ccccc12)NCC(=O)N(CCCCNC(=O)c1cccc(O)c1O)C(=O)c1cccc(O)c1O)C(=O)NCC(=O)N1CCN(c2ccc(N3C[C@H](CNC(C)=O)OC3=O)cc2F)CC1`, the MIC in [16] was found to be 1 µM (≈ 1.59 µg/mL).

With `CC(=O)NC[C@H]1CN(c2ccc(N3CCN(C(=O)COCCOCCn4cc(CNC(=O)C(CNC(=O)C(CNC(=O)CNC(=O)c5cccc(O)c5O)NC(=O)c5cccc(O)c5O)NC(=O)c5cccc(O)c5O)nn4)CC3)c(F)c2)C(=O)O1` (stereo partly drawn), the figures for the MIC in data set [13] and in [14] were 64 µM (≈ 76.8 µg/mL) and more than 64 µM, respectively.

For the molecule `CC(=O)NC[C@H]1CN(c2ccc(N3CCN(C(=O)OCn4cc(CNC(=O)C(CCCCNC(=O)c5cccc(O)c5O)NC(=O)c5cccc(O)c5O)nn4)CC3)c(F)c2)C(=O)O1` (stereo partly drawn), the results for the MIC in [13] and in [14] were 64 µM (≈ 57 µg/mL) and more than 64 µM, respectively.

For `O=C1C=CN(c2c(F)cc(N3C[C@H](CNc4ccon4)OC3=O)c(F)c2F)CC1` [CONTEZOLID], the MIC was determined as 0.06 mg/L (≈ 0.147 µM) in data set [17], 0.06 mg/L in data set [18] and 0.06 mg/L (≈ 0.147 µM) in data set [19]. In [20], the IC50 was 30.1 µM.

For `CC(=O)NC[C@H]1CN(c2ccc(N3CCN(C(=O)CO)CC3)c(F)c2)C(=O)O1` [EPEREZOLID], the MIC in data set [21], in data set [22] and in data set [23] was 1 mg/L (≈ 2.54 µM) throughout.

For the molecule `CC(=O)NC[C@H]1CN(c2ccc(N3CCN(Cc4ccc([N+](=O)[O-])o4)CC3)c(F)c2)C(=O)O1` [RANBEZOLID], the MIC in data set [24] and in data set [25] was 0.125 mg/L (≈ 0.271 µM) throughout.

Regarding `Cn1nnc(-c2ccc(-c3ccc(N4C[C@H](CO)OC4=O)cc3F)cn2)n1` [TEDIZOLID], the ED50 in [26], in data set [27] and in data set [28] was 8.8 mg/kg throughout. In data set [29], the bioavailability was 91%. In addition, the fraction unbound in data set [30] is 0.3.
